These are literature values, as cited in patent US20020112260A1, “Plants having resistance to multiple herbicides and its use” (Asgrow Seed Company LLC, priority 1997, published 2002).

For this series, the system named is soybeans. The note with it: non-STS soybeans.

`COc1cc(Cl)nc(NC(=O)NS(=O)(=O)c2ccccc2C(=O)O)n1` [chlorimuron]: the crop injury result was “can cause significant crop injury”.

For the molecule `COc1nc(C)nc(NC(=O)NS(=O)(=O)c2ccsc2C(=O)O)n1` [thifensulfuron], the crop injury result is given as “can cause significant crop injury”.
